This is an account of results in US20140243334A1, “SUBSTITUTED HYDOXAMIC ACIDS AND USES THEREOF” (Millennium Pharmaceuticals, Inc., priority 2010, published 2014).

In this assay the target is T1, purified human HDAC6 (Homo sapiens, UniProt Q9UBN7).
T1 construct: purchased BPS Bioscience 5006
T1 sequence (Q9UBN7 1-1215): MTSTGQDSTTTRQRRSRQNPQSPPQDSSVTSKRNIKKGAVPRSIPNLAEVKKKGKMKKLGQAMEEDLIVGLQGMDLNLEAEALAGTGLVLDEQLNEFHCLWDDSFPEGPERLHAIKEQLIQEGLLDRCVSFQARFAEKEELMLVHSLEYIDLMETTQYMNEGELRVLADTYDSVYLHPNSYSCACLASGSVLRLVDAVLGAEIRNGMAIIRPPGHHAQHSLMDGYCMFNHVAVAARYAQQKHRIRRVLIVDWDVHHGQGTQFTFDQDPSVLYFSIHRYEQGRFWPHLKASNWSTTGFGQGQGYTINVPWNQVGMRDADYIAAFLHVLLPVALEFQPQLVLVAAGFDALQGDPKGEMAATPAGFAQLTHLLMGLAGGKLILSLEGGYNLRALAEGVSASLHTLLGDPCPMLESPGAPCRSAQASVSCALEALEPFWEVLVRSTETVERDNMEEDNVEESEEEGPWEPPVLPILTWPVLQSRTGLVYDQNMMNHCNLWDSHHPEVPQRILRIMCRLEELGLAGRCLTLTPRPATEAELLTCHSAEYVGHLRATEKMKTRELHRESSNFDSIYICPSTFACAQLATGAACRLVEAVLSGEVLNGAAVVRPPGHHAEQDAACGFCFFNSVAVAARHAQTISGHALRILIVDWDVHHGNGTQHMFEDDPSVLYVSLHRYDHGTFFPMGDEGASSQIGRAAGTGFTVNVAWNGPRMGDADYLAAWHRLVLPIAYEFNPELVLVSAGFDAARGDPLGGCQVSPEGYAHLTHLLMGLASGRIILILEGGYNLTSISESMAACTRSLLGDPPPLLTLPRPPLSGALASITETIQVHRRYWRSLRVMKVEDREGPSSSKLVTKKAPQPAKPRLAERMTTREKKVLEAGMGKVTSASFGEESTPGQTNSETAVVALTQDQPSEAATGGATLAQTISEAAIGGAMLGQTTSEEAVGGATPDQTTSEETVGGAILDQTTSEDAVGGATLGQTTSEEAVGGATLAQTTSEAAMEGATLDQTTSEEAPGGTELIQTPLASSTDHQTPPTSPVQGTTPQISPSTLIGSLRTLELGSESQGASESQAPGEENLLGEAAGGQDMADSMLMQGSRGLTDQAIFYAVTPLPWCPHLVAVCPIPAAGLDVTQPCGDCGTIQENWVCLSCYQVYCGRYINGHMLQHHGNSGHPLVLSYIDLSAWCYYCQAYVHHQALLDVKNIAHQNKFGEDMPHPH
Description: HDAC6 Enzyme Assay. The conditions noted are these: HDAC6 inhibition at a compound concentration of 0.412 μM; read-out: Percent Inhibition at 0.412 μM. The class given is biochemical. The protocol:
To measure the inhibition of HDAC6 activity, purified human HDAC6 (BPS Bioscience; Cat. No. 5006) is incubated with substrate Ac-Arg-Gly-Lys(Ac)-AMC peptide (Bachem Biosciences; Cat. No. I-1925) for 1 hour at 30° C. in the presence of test compounds or vehicle DMSO control. The reaction is stopped with the HDAC inhibitor trichostatin A (Sigma; Cat. No. T8552) and the amount of Arg-Gly-Lys-AMC generated is quantitated by digestion with trypsin (Sigma; Cat. No. T1426) and subsequent measurement of the amount of AMC released using a fluorescent plate reader (Pherastar; BMG Technologies) set at Ex 340 nm and Em 460 nm. Concentration response curves are generated by calculating the fluorescence increase in test compound-treated samples relative to DMSO-treated controls, and enzyme inhibition (IC50) values are determined from those curves.
Usually inhibition stands for the change of the read-out against control, counted positive when it falls. Regarding `O=C1CCc2c(Oc3cc4c(cc3F)CCC(C(=O)NO)C4)ccnc2N1` (centres unmarked) [Compound I-31, 6-fluoro-N-hydroxy-7-[(7-oxo-5,6,7,8-tetrahydro-1,8-naphthyridin-4-yl)oxy]-1,2,3,4-tetrahydronaphthalene-2-carboxamide], the inhibition at 0.412 µM amounted to 79%.

Regarding `O=C(NO)C1CCc2cc(F)c(Oc3ccnc(NC(=O)C4CC4)c3)cc2C1` (centres unmarked) [Compound I-32, 7-({2-[(cyclopropylcarbonyl)amino]pyridin-4-yl}oxy)-6-fluoro-N-hydroxy-1,2,3,4-tetrahydronaphthalene-2-carboxamide], the inhibition at 0.412 µM was found to be 91%.

Turning to `O=C(NO)C1CCc2ccc(Nc3ccncc3)cc2C1` (centres unmarked) [Compound I-33, N-hydroxy-7-(pyridin-4-ylamino)-1,2,3,4-tetrahydronaphthalene-2-carboxamide], the inhibition at 0.412 µM was determined as 57%.

With `O=C(NO)C1CCc2ccc(C#Cc3ccccc3)cc2C1` (centres unmarked) [Compound I-34, N-hydroxy-7-(phenylethynyl)-1,2,3,4-tetrahydronaphthalene-2-carboxamide], the inhibition at 0.412 µM is 57%.

On to `Cn1cc(-c2cc(C(=O)Nc3ccc4c(c3)CC(C(=O)NO)CC4)cc(C(F)(F)F)c2)cn1` (centres unmarked) [Compound I-35, N-hydroxy-7-{[3-(1-methyl-1H-pyrazol-4-yl)-5-(trifluoromethyl)benzoyl]amino}-1,2,3,4-tetrahydronaphthalene-2-carboxamide], for which the inhibition at 0.412 µM was 87%.

As for `O=C(NO)C1CCc2ccc(CCc3ccccc3)cc2C1` (centres unmarked) [Compound I-36, N-hydroxy-7-(2-phenylethyl)-1,2,3,4-tetrahydronaphthalene-2-carboxamide], the inhibition at 0.412 µM was determined as 37%.

As to `CN(C)Cc1cc(C(=O)Nc2ccc3c(c2)CC(C(=O)NO)CC3)cc(C(F)(F)F)c1` (centres unmarked) [Compound I-37, 7-{[3-[(dimethylamino)methyl]-5-(trifluoromethyl)benzoyl]amino}-N-hydroxy-1,2,3,4-tetrahydronaphthalene-2-carboxamide], the inhibition at 0.412 µM was found to be 55%.

In the case of `O=C(NO)C1CCc2ccc(NCc3cccnc3)cc2C1` (centres unmarked) [Compound I-38, N-hydroxy-7-[(pyridin-3-ylmethyl)amino]-1,2,3,4-tetrahydronaphthalene-2-carboxamide], the inhibition at 0.412 µM was 57%.

As to `NC(=O)c1ccc2c(c1)CC(C(=O)NO)CC2` (centres unmarked) [Compound I-39, N^2-hydroxy-1,2,3,4-tetrahydronaphthalene-2,7-dicarboxamide], the inhibition at 0.412 µM was determined as 76%.

Regarding `CN(C)c1ccc2c(c1)CC(C(=O)NO)CC2` (centres unmarked) [Compound I-40, 7-(dimethylamino)-N-hydroxy-1,2,3,4-tetrahydronaphthalene-2-carboxamide], the inhibition at 0.412 µM amounted to 46%.

As for `O=C(NO)C1CCc2ccc(Oc3cccc(OCc4ccccc4)c3)cc2C1` (centres unmarked) [Compound I-41, 7-[3-(benzyloxy)phenoxy]-N-hydroxy-1,2,3,4-tetrahydronaphthalene-2-carboxamide], the inhibition at 0.412 µM amounted to 64%.

Consider `N#Cc1ccc2c(c1)CC(C(=O)NO)CC2` (centres unmarked) [Compound I-42, 7-cyano-N-hydroxy-1,2,3,4-tetrahydronaphthalene-2-carboxamide], for which the inhibition at 0.412 µM worked out at 62%.

For the molecule `O=C(NC1CC1)c1cccc(Oc2ccc3c(c2)CC(C(=O)NO)CC3)c1` (centres unmarked) [Compound I-43, 7-{3-[(cyclopropylamino)carbonyl]phenoxy}-N-hydroxy-1,2,3,4-tetrahydronaphthalene-2-carboxamide], the inhibition at 0.412 µM came to 19%.

Take `CN(C)CCOc1ccc2c(c1)CC(C(=O)NO)CC2` (centres unmarked) [Compound I-44, 7-[2-(dimethylamino)ethoxy]-N-hydroxy-1,2,3,4-tetrahydronaphthalene-2-carboxamide]: the inhibition at 0.412 µM was found to be 34%.

With `CC(C)(C)NC(=O)c1ccc2c(c1)CC(C(=O)NO)CC2` (centres unmarked) [Compound I-45, N^7-(tert-butyl)-N^2-hydroxy-1,2,3,4-tetrahydronaphthalene-2,7-dicarboxamide], the inhibition at 0.412 µM is 79%.

For `CN(C)CCOc1cccc(Oc2ccc3c(c2)CC(C(=O)NO)CC3)c1` (centres unmarked) [Compound I-46, 7-{3-[2-(dimethylamino)ethoxy]phenoxy}-N-hydroxy-1,2,3,4-tetrahydronaphthalene-2-carboxamide], the inhibition at 0.412 µM amounted to 78%.

With `CC(C)c1cccc(Oc2ccc3c(c2)CC(C(=O)NO)CC3)c1` (centres unmarked) [Compound I-47, N-hydroxy-7-(3-isopropylphenoxy)-1,2,3,4-tetrahydronaphthalene-2-carboxamide], the inhibition at 0.412 µM came to 74%.

Turning to `O=C(NO)C1CCc2ccc(-c3cccc(OCc4ccccc4)c3)cc2C1` (centres unmarked) [Compound I-48, 7-[3-(benzyloxy)phenyl]-N-hydroxy-1,2,3,4-tetrahydronaphthalene-2-carboxamide], the inhibition at 0.412 µM stood at 73%.

Regarding `O=C(NO)C1CCc2ccc(-c3cccc(Cl)c3)cc2C1` (centres unmarked) [Compound I-49, 7-(3-chlorophenyl)-N-hydroxy-1,2,3,4-tetrahydronaphthalene-2-carboxamide], the inhibition at 0.412 µM turned out to be 82%.

Turning to `O=C(NO)C1CCc2ccc(Oc3cccc(NC(=O)C4CC4)c3)cc2C1` (centres unmarked) [Compound I-50, 7-{3-[(cyclopropylcarbonyl)amino]phenoxy}-N-hydroxy-1,2,3,4-tetrahydronaphthalene-2-carboxamide], the inhibition at 0.412 µM was 84%.

`O=C(NC1CC1)c1cccc(-c2ccc3c(c2)CC(C(=O)NO)CC3)c1` (centres unmarked) [Compound I-51, 7-{3-[(cyclopropylamino)carbonyl]phenyl}-N-hydroxy-1,2,3,4-tetrahydronaphthalene-2-carboxamide]: the inhibition at 0.412 µM stood at 88%.

Consider `CC(C)(C)OC(=O)Nc1ccc(Oc2ccc3c(c2)CC(C(=O)NO)CC3)cc1` (centres unmarked) [Compound I-52, tert-butyl [4-({7-[(hydroxyamino)carbonyl]-5,6,7,8-tetrahydronaphthalen-2-yl}oxy)phenyl]carbamate], for which the inhibition at 0.412 µM was 74%.

On to `CC(C)(C)OC(=O)Nc1cccc(Oc2ccc3c(c2)CC(C(=O)NO)CC3)c1` (centres unmarked) [Compound I-53, tert-Butyl [3-({7-[(hydroxyamino)carbonyl]-5,6,7,8-tetrahydronaphthalen-2-yl}oxy)phenyl]carbamate], for which the inhibition at 0.412 µM amounted to 83%.

Regarding `O=C(NO)C1CCc2ccc(-c3cc4ccccc4[nH]3)cc2C1` (centres unmarked) [Compound I-54, N-hydroxy-7-(1H-indol-2-yl)-1,2,3,4-tetrahydronaphthalene-2-carboxamide], the inhibition at 0.412 µM was found to be 82%.

As to `CS(=O)(=O)Nc1cccc(Oc2ccc3c(c2)CC(C(=O)NO)CC3)c1` (centres unmarked) [Compound I-55, N-hydroxy-7-{3-[(methylsulfonyl)amino]phenoxy}-1,2,3,4-tetrahydronaphthalene-2-carboxamide], the inhibition at 0.412 µM was 93%.

On to `O=C(NO)C1CCc2ccc(Oc3ccc(NC(=O)C4CC4)cc3)cc2C1` (centres unmarked) [Compound I-56, 7-{4-[(cyclopropylcarbonyl)amino]phenoxy}-N-hydroxy-1,2,3,4-tetrahydronaphthalene-2-carboxamide], for which the inhibition at 0.412 µM came out at 82%.

Regarding `CNC(=O)Nc1cccc(Oc2ccc3c(c2)CC(C(=O)NO)CC3)c1` (centres unmarked) [Compound I-57, N-hydroxy-7-(3-{[(methylamino)carbonyl]amino}phenoxy)-1,2,3,4-tetrahydronaphthalene-2-carboxamide], the inhibition at 0.412 µM is 73%.

As for `CN(C)CCOc1cccc(-c2ccc3c(c2)CC(C(=O)NO)CC3)c1` (centres unmarked) [Compound I-58, 7-{3-[2-(dimethylamino)ethoxy]phenyl}-N-hydroxy-1,2,3,4-tetrahydronaphthalene-2-carboxamide], the inhibition at 0.412 µM amounted to 87%.

With `O=C(NO)C1CCc2ccc(Oc3cccc(NCc4ccccc4)c3)cc2C1` (centres unmarked) [Compound I-59, 7-[3-(benzylamino)phenoxy]-N-hydroxy-1,2,3,4-tetrahydronaphthalene-2-carboxamide], the inhibition at 0.412 µM was 76%.
